According to patent publication US20240376100A1 (Redona Therapeutics, Inc., priority 2021, published 2024):
Structures can show the parent of a compound that is named as a salt.

molecular target: PAPD5 enzyme (Homo sapiens, UniProt Q8NDF8); assay: PAPD5 assay (AMP incorporation onto 3'-terminus of RNA substrate, fluorescence quench); assay type: biochemical; conditions: PAPD5 protein 0.3 nM, ATP 50 μM, 30 minutes preincubation, room temperature; read-out: Potency PAPD5 IC50
Protocol: The purpose of the PAPD5 assay is to determine compound potency against PAPD5 enzyme through the measurement of IC50. Compound inhibition is measured as a function of AMP incorporation onto the 3′-terminus of an RNA substrate in the presence of active PAPD5, ATP, and inhibitor. The PAPD5 assay was done in a black, non-binding, 384 well plate (Corning #3575). All steps were performed at room temperature. For a typical assay, a 40 ul aliquot of assay buffer (50 mM HEPES pH 7.3, 20 mM KCl, 10 mM MgCl2, 10 mMM DTT, 0.01% Triton X-100, 40 U/ml RNAsin (Promega)) containing PAPD5 protein (final 10 concentration: 0.3 nM) and ATP (final concentration 50 μM) was added to each well. Next, 1 ul of compound in 100% DMSO is transferred from a compound dilution plate in which the compound is serially diluted. The plate was placed on a plate shaker for 30 seconds to produce mixing, then incubated for 30 minutes. Next, 10 ul of a 5× mix of RNA substrate (5′-fluorescein-AUAGAG-3′ (IDT)) and a DNA oligonucleotide that is complementary to the AMP modified RNA product (5′-TCTCTATT-3′-TAMRA, wherein the first two nucleotides are locked nucleic acids (IDT)) was added (final concentrations: 5 nM and 20 nM, respectively). The plate was placed on a plate shaker for 30 seconds to produce mixing then immediately placed in a Biotek Cytation 5 plate reader, and the time-dependent decrease in fluorescein fluorescence resulting from annealing of the TAMRA labeled quenching probe was recorded, using the kinetics mode of the reader (typical run time is 90 minutes). Reaction rates were obtained using linear fits to the early portion of progress curves. IC50 values were calculated using a four-parameter fit with 100% enzyme activity determined from the DMSO control and 0% activity from control samples lacking UTP.
“+” represents an IC50 value that is greater than 50 PM; “++” represents an IC50 value that is greater than 10 μM and equal to or less than 50 μM; “+++” represents an IC50 value that is greater than 1 μM and equal to or less than 10 μM; and “++++” represents an IC50 value that is equal to or less than 1 μM.

Chain of PAPD5 enzyme (Q8NDF8 whole entry): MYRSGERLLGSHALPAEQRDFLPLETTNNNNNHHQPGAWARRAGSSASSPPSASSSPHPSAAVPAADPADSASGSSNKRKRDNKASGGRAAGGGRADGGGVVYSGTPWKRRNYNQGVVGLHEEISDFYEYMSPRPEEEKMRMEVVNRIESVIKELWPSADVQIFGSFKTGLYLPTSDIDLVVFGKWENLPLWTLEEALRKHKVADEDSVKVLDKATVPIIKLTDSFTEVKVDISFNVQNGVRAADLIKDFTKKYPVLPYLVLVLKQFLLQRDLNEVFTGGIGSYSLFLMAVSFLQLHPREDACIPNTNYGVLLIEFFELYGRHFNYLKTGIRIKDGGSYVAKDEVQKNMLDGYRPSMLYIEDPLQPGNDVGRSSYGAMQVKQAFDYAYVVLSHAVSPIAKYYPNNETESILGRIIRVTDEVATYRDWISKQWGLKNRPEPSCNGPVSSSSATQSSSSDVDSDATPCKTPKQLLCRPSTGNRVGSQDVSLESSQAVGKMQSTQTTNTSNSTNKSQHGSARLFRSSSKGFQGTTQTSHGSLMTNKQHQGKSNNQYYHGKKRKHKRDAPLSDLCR

IC50, ≤ 1000 nM:
Cc1cc(NC(=O)OC(C)(C)C)ncc1-n1cc(C(=O)O)c(=O)c2cc(Cl)c(N3Cc4ccncc4C3)nc21 [Example 167, 1-(6-((tert-butoxycarbonyl)amino)-4-methylpyridin-3-yl)-6-chloro-7-(1,3-dihydro-2H-pyrrolo[3,4-c]pyridin-2-yl)-4-oxo-1,4-dihydro-1,8-naphthyridine-3-carboxylic acid]
COCCCN(C)c1cc2c(cc1Cl)c(=O)c(C(=O)O)cn2-c1cnc(N)cc1C [Example 133, 1-(6-amino-4-methylpyridin-3-yl)-6-chloro-7-((3-methoxypropyl)(methyl)amino)-4-oxo-1,4-dihydroquinoline-3-carboxylic acid]
COc1cnc(-n2cc(C(=O)O)c(=O)c3cc(C#N)c(N4Cc5cccnc5C4)cc32)cn1 [Example 54, 6-cyano-7-(5,7-dihydro-6H-pyrrolo[3,4-b]pyridin-6-yl)-1-(5-methoxypyrazin-2-yl)-4-oxo-1,4-dihydro quinoline-3-carboxylic acid]
Cc1cc(NC(=O)C(C)C)ncc1-n1cc(C(=O)O)c(=O)c2cc(Cl)c(N3Cc4cccnc4C3)cc21 [Example 83, 6-chloro-7-(5,7-dihydro-6H-pyrrolo[3,4-b]pyridin-6-yl)-1-(6-isobutyramido-4-methylpyridin-3-yl)-4-oxo-1,4-dihydroquinoline-3-carboxylic acid]
O=C(O)c1cn(C2CCOCC2)c2nc(N3Cc4cccnc4C3)c(Cl)cc2c1=O [Example 101, 6-chloro-7-(5,7-dihydro-6H-pyrrolo[3,4-b]pyridin-6-yl)-4-oxo-1-(tetrahydro-2H-pyran-4-yl)-1,4-dihydro-1,8-naphthyridine-3-carboxylic acid]
COc1ccc(-n2cc(C(=O)O)c(=O)c3cc(C#N)c(N4Cc5cccnc5C4)cc32)cn1 [Example 55, 6-cyano-7-(5,7-dihydro-6H-pyrrolo[3,4-b]pyridin-6-yl)-1-(6-methoxypyridin-3-yl)-4-oxo-1,4-dihydroquinoline-3-carboxylic acid]
CC1(Cn2cc(C(=O)O)c(=O)c3cc(Cl)c(N4Cc5cccnc5C4)nc32)CCC1 [Example 61, 6-chloro-7-(5,7-dihydro-6H-pyrrolo[3,4-b]pyridin-6-yl)-1-((1-methylcyclobutyl)methyl)-4-oxo-1,4-dihydro-1,8-naphthyridine-3-carboxylic acid]
N#Cc1cc2c(=O)c(C(=O)O)cn(-c3ccc(O)nc3)c2cc1N1Cc2cccnc2C1 [Example 56, 6-cyano-7-(5,7-dihydro-6H-pyrrolo[3,4-b]pyridin-6-yl)-1-(6-hydroxypyridin-3-yl)-4-oxo-1,4-dihydroquinoline-3-carboxylic acid]
COCCN(C)c1ccn(-c2nc3c(cc2Cl)c(=O)c(C(=O)O)cn3-c2ccc(N)nc2)n1 [Example 95, 1-(6-aminopyridin-3-yl)-6-chloro-7-(3-((2-methoxyethyl)(methyl)amino)-1H-pyrazol-1-yl)-4-oxo-1,4-dihydro-1,8-naphthyridine-3-carboxylic acid]
Cc1cc(NC(=O)N2CCOCC2)ncc1-n1cc(C(=O)O)c(=O)c2cc(Cl)c(N3Cc4cccnc4C3)cc21 [Example 115, 6-chloro-7-(5,7-dihydro-6H-pyrrolo[3,4-b]pyridin-6-yl)-1-(4-methyl-6-(morpholine-4-carboxamido)pyridin-3-yl)-4-oxo-1,4-dihydroquinoline-3-carboxylic acid]
Cc1nc(NC(=O)OC(C)(C)C)ccc1-n1cc(C(=O)O)c(=O)c2cc(Cl)c(N3Cc4cccnc4C3)cc21 [Example 46, 1-(6-((tert-butoxycarbonyl)amino)-2-methylpyridin-3-yl)-6-chloro-7-(5,7-dihydro-6H-pyrrolo[3,4-b]pyridin-6-yl)-4-oxo-1,4-dihydroquinoline-3-carboxylic acid]
CC(=O)N1CCC(Cn2cc(C(=O)O)c(=O)c3cc(Cl)c(N4Cc5cccnc5C4)cc32)CC1 [Example 122, 1-((1-acetylpiperidin-4-yl)methyl)-6-chloro-7-(5,7-dihydro-6H-pyrrolo[3,4-b]pyridin-6-yl)-4-oxo-1,4-dihydroquinoline-3-carboxylic acid]
Cc1cc(NCCN2CCCCC2)ncc1-n1cc(C(=O)O)c(=O)c2cc(Cl)c(N3Cc4cccnc4C3)nc21 [Example 172, 6-chloro-7-(5,7-dihydro-6H-pyrrolo[3,4-b]pyridin-6-yl)-1-(4-methyl-6-((2-(piperidin-1-yl)ethyl)amino)pyridin-3-yl)-4-oxo-1,4-dihydro-1,8-naphthyridine-3-carboxylic acid]
COc1cc2c(=O)c(C(=O)O)cn(-c3cnc(N)cc3C)c2cc1N1Cc2cccnc2C1 [Example 139, 1-(6-amino-4-methylpyridin-3-yl)-7-(5,7-dihydro-6H-pyrrolo[3,4-b]pyridin-6-yl)-6-methoxy-4-oxo-1,4-dihydroquinoline-3-carboxylic acid]
Cc1cc(NC(=O)C2CCC2)ncc1-n1cc(C(=O)O)c(=O)c2cc(Cl)c(N3Cc4cccnc4C3)nc21 [Example 174, 6-chloro-1-(6-(cyclobutanecarboxamido)-4-methylpyridin-3-yl)-7-(5,7-dihydro-6H-pyrrolo[3,4-b]pyridin-6-yl)-4-oxo-1,4-dihydro-1,8-naphthyridine-3-carboxylic acid]
CN(CCO)c1ccn(-c2cc3c(cc2Cl)c(=O)c(C(=O)O)cn3-c2ccc(N)nc2)n1 [Example 92, 1-(6-aminopyridin-3-yl)-6-chloro-7-(3-((2-hydroxyethyl)(methyl)amino)-1H-pyrazol-1-yl)-4-oxo-1,4-dihydroquinoline-3-carboxylic acid]
O=C(O)c1cn(-c2ccc(O)c(F)c2)c2cc(N3Cc4ccccc4C3)c(F)cc2c1=O [Example 31, 6-fluoro-1-(3-fluoro-4-hydroxyphenyl)-7-(isoindolin-2-yl)-4-oxo-1,4-dihydroquinoline-3-carboxylic acid]
Cc1cc(N)ncc1-n1cc(C(=O)O)c(=O)c2cc(Cl)c(N3CCc4ccccc4C3)nc21 [Example 176, 1-(6-amino-4-methylpyridin-3-yl)-6-chloro-7-(3,4-dihydroisoquinolin-2(1H)-yl)-4-oxo-1,4-dihydro-1,8-naphthyridine-3-carboxylic acid]
O=C(O)c1cn(C2CCNCC2)c2cc(N3Cc4cccnc4C3)c(Cl)cc2c1=O [Example 123, 6-chloro-7-(5,7-dihydro-6H-pyrrolo[3,4-b]pyridin-6-yl)-4-oxo-1-(piperidin-4-yl)-1,4-dihydroquinoline-3-carboxylic acid hydrochloride]
Cc1cc(N(C)C)ncc1-n1cc(C(=O)O)c(=O)c2cc(Cl)c(N3Cc4cccnc4C3)nc21 [Example 146, 6-chloro-7-(5,7-dihydro-6H-pyrrolo[3,4-b]pyridin-6-yl)-1-(6-(dimethylamino)-4-methylpyridin-3-yl)-4-oxo-1,4-dihydro-1,8-naphthyridine-3-carboxylic acid]
CNCCNc1cc(C)c(-n2cc(C(=O)O)c(=O)c3cc(Cl)c(N4Cc5cccnc5C4)nc32)cn1 [Example 171, 6-chloro-7-(5,7-dihydro-6H-pyrrolo[3,4-b]pyridin-6-yl)-1-(4-methyl-6-((2-(methylamino)ethyl)amino)pyridin-3-yl)-4-oxo-1,4-dihydro-1,8-naphthyridine-3-carboxylic acid]
Cn1cnc(Cn2cc(C(=O)O)c(=O)c3cc(Cl)c(N4Cc5cccnc5C4)cc32)c1 [Example 131, 6-chloro-7-(5,7-dihydro-6H-pyrrolo[3,4-b]pyridin-6-yl)-1-((1-methyl-1H-imidazol-4-yl)methyl)-4-oxo-1,4-dihydroquinoline-3-carboxylic acid]
Cc1cc(NC(=O)OC(C)(C)C)ncc1-n1cc(C(=O)O)c(=O)c2cc(Cl)c(N3CCc4ccccc4C3)nc21 [Example 175, 1-(6-((tert-butoxycarbonyl)amino)-4-methylpyridin-3-yl)-6-chloro-7-(3,4-dihydroisoquinolin-2(1H)-yl)-4-oxo-1,4-dihydro-1,8-naphthyridine-3-carboxylic acid]
CCCc1cc(N)ncc1-n1cc(C(=O)O)c(=O)c2cc(Cl)c(N3Cc4cccnc4C3)cc21 [Example 199, 1-(6-amino-4-propylpyridin-3-yl)-6-chloro-7-(5,7-dihydro-6H-pyrrolo[3,4-b]pyridin-6-yl)-4-oxo-1,4-dihydroquinoline-3-carboxylic acid]
